# Measurements: patent US20250034201A1, “PRODRUGS OF GANAXOLONE” (priority 2022, published 2025)
# Where two headings read alike, the source gives them in different places.
# Assay: in vitro
# Type: in vitro ADME, human
# Description: For several compounds only human liver microsomal stability was tested. […] The microsomal assays were carried out with and without the addition of NADPH at a final concentration of 1 mM. For negative control samples, NADPH reagent was not added. […] Note that compounds undergo only Phase I metabolism in liver microsomes.
# [1] = human liver microsomes 0.5 mg/mL, with NADPH, compound 0.5 μM, 37° C., read-out: Human Liver Microsomal Stability t1/2
# [2] = human liver microsomes 0.5 mg/mL, with NADPH, compound 0.5 μM, read-out: Human Liver Microsomal Stability CLint (uL/min/mg liver) (converted)
# [3] = human liver microsomes, no NADPH, compound 0.5 μM
Structure (SMILES),"half-life (human, microsomes) [min]","microsomal CLint (human, microsomes) [µL/min/mg]","Human Liver Microsomal Stability no NADPH, % remain 1 h (human, microsomes) [%]",half-life [1] [min],microsomal CLint [2] [µL/min/mg],"Human Liver Microsomal Stability no NADPH, % remain 1 h [3] [%]",Comments: production of GNX (ganaxolone) in human liver microsomes (human liver microsomes),Comments: production of GNX (ganaxolone) in human liver microsomes
CC(=O)[C@H]1CC[C@H]2[C@@H]3CC[C@H]4C[C@](C)(OC(=O)CNC(C)(C)COC(=O)C(C)C)CC[C@]4(C)[C@H]3CC[C@]12C [Compound 135],3.6,385,1.3,,,,,
CC(=O)[C@H]1CC[C@H]2[C@@H]3CC[C@H]4C[C@](C)(OC(=O)CNC(C)(C)COC(=O)CN5CCOCC5)CC[C@]4(C)[C@H]3CC[C@]12C [Compound 136],,,,3,457,0.5,,
CC(=O)[C@H]1CC[C@H]2[C@@H]3CC[C@H]4C[C@](C)(OC(=O)CN5CCC[C@H]5C(=O)O)CC[C@]4(C)[C@H]3CC[C@]12C [Compound 137],,,,908,1.52,95,In human no GNX produced,
CC(=O)[C@H]1CC[C@H]2[C@@H]3CC[C@H]4C[C@](C)(OC(=O)CNCC(C)(C)N)CC[C@]4(C)[C@H]3CC[C@]12C [Compound 138],,,,33.2,41.8,95.3,In human small amount of GNX produced,
CC(=O)[C@H]1CC[C@H]2[C@@H]3CC[C@H]4C[C@](C)(OC(=O)CNCC(C)(C)O)CC[C@]4(C)[C@H]3CC[C@]12C [Compound 140],,,,39.1,35.5,99,,
CC(=O)[C@H]1CC[C@H]2[C@@H]3CC[C@H]4C[C@](C)(OC(=O)CNC(=O)C(C)(C)O)CC[C@]4(C)[C@H]3CC[C@]12C [Compound 141],38.3,36.2,99.7,,,,In human no GNX produced,
CC(=O)[C@H]1CC[C@H]2[C@@H]3CC[C@H]4C[C@](C)(OC(=O)CN(CCO)CCO)CC[C@]4(C)[C@H]3CC[C@]12C [Compound 142],32.3,42.9,99,,,,,
CC(=O)[C@H]1CC[C@H]2[C@@H]3CC[C@H]4C[C@](C)(OC(=O)COC(=O)CN(C)C)CC[C@]4(C)[C@H]3CC[C@]12C [Compound 202],,,,2.62,529,1.85,,
CCOCCC(=O)OCC(=O)O[C@]1(C)CC[C@@]2(C)[C@@H](CC[C@@H]3[C@@H]2CC[C@]2(C)[C@@H](C(C)=O)CC[C@@H]32)C1 [Compound 203],,,,2.24,618,0.79,,
COCCOCC(=O)OCC(=O)O[C@]1(C)CC[C@@]2(C)[C@@H](CC[C@@H]3[C@@H]2CC[C@]2(C)[C@@H](C(C)=O)CC[C@@H]32)C1 [Compound 204],,,,4.12,337,10.5,,
COCCOCCOCC(=O)OCC(=O)O[C@]1(C)CC[C@@]2(C)[C@@H](CC[C@@H]3[C@@H]2CC[C@]2(C)[C@@H](C(C)=O)CC[C@@H]32)C1 [Compound 205],,,,3.58,387,5.7,,
CC(=O)[C@H]1CC[C@H]2[C@@H]3CC[C@H]4C[C@](C)(OC(=O)COC(=O)[C@H](C)N5CCOCC5)CC[C@]4(C)[C@H]3CC[C@]12C [Compound 211],,,,10.5,132,27,,
CC(=O)[C@H]1CC[C@H]2[C@@H]3CC[C@H]4C[C@](C)(OC(=O)COC(=O)[C@@H](C)N5CCOCC5)CC[C@]4(C)[C@H]3CC[C@]12C [Compound 212],14.3,96.9,99,,,,In human small amount of GNX produced,
CC(=O)[C@H]1CC[C@H]2[C@@H]3CC[C@H]4C[C@](C)(OC(=O)COC(=O)C(C)(C)N5CCOCC5)CC[C@]4(C)[C@H]3CC[C@]12C [Compound 213],,,,27.3,50.7,98,In human small amount of GNX produced,
CC(=O)[C@H]1CC[C@H]2[C@@H]3CC[C@H]4C[C@](C)(OC(=O)COC(=O)CNC(=O)[C@@H](N)C(C)C)CC[C@]4(C)[C@H]3CC[C@]12C [Compound 214],,,,161,8.6,79.5,,
CC(=O)[C@H]1CC[C@H]2[C@@H]3CC[C@H]4C[C@](C)(OC(=O)COC(=O)[C@H](CC(C)C)NC(=O)[C@@H](N)CC(C)C)CC[C@]4(C)[C@H]3CC[C@]12C [Compound 215],,,,257,5.39,88,,
CC(=O)[C@H]1CC[C@H]2[C@@H]3CC[C@H]4C[C@](C)(OC(=O)COC(=O)CNC(=O)[C@H](C)N)CC[C@]4(C)[C@H]3CC[C@]12C [Compound 216],,,,192,7.22,80,,
CC(=O)[C@H]1CC[C@H]2[C@@H]3CC[C@H]4C[C@](C)(CC(=O)COC(=O)NCCN(C)C)CC[C@]4(C)[C@H]3CC[C@]12C [Compound 217],,,,316,4.39,99.7,,
CC(=O)[C@H]1CC[C@H]2[C@@H]3CC[C@H]4C[C@](C)(OC(=O)COC(=O)OC5CNC5)CC[C@]4(C)[C@H]3CC[C@]12C [Compound 222],,,,63.7,21.8,61,In human no GNX produced,
CC(=O)[C@H]1CC[C@H]2[C@@H]3CC[C@H]4C[C@](C)(OC(=O)COC(=O)C(C)(C)OC(=O)CN(C)C)CC[C@]4(C)[C@H]3CC[C@]12C [Compound 227],23.9,58.1,71,,,,,In human no GNX produced
CC(=O)COCN(CCO)CC(=O)OC(C)(C)C(=O)OCC(=O)O[C@]1(C)CC[C@@]2(C)[C@@H](CC[C@@H]3[C@@H]2CC[C@]2(C)[C@@H](C(C)=O)CC[C@@H]32)C1 [Compound 230],,,,2.94,471,1,,
CC(=O)[C@H]1CC[C@H]2[C@@H]3CC[C@H]4C[C@](C)(OC(=O)COC(=O)C(C)(C)OC(=O)CN(CCCO)CCCO)CC[C@]4(C)[C@H]3CC[C@]12C [Compound 231],,,,5.3,261,98,,
CNC(C)(C)C(=O)OCC(=O)O[C@]1(C)CC[C@@]2(C)[C@@H](CC[C@@H]3[C@@H]2CC[C@]2(C)[C@@H](C(C)=O)CC[C@@H]32)C1 [Compound 232],,,,13.5,103,27,,
CC(=O)[C@H]1CC[C@H]2[C@@H]3CC[C@H]4C[C@](C)(OC(=O)COC(=O)C(C)(C)OC(=O)CN(C)CCO)CC[C@]4(C)[C@H]3CC[C@]12C [Compound 233],,,,5.3,261,5,,
COCCN(CCO)CC(=O)OC(C)(C)C(=O)OCC(=O)O[C@]1(C)CC[C@@]2(C)[C@@H](CC[C@@H]3[C@@H]2CC[C@]2(C)[C@@H](C(C)=O)CC[C@@H]32)C1 [Compound 235],,,,5.2,269,36,,
COCCN(CCOC(C)=O)CC(=O)OC(C)(C)C(=O)OCC(=O)O[C@]1(C)CC[C@@]2(C)[C@@H](CC[C@@H]3[C@@H]2CC[C@]2(C)[C@@H](C(C)=O)CC[C@@H]32)C1 [Compound 236],3.72,372,<1,,,,,
CC(=O)OCCCN(CCCOC(C)=O)CC(=O)OC(C)(C)C(=O)OCC(=O)O[C@]1(C)CC[C@@]2(C)[C@@H](CC[C@@H]3[C@@H]2CC[C@]2(C)[C@@H](C(C)=O)CC[C@@H]32)C1 [Compound 237],5.18,267,<1,,,,,
CC(=O)[C@H]1CC[C@H]2[C@@H]3CC[C@H]4C[C@](C)(OC(=O)COC(=O)C(C)(C)OC(=O)CN(C)CCOC(=O)CN)CC[C@]4(C)[C@H]3CC[C@]12C [Compound 241],3.9,356,3.68,,,,,
CC(=O)[C@H]1CC[C@H]2[C@@H]3CC[C@H]4C[C@](C)(OC(=O)COC(=O)C(C)(C)OC(=O)CN(C)CCCO)CC[C@]4(C)[C@H]3CC[C@]12C [Compound 245],,,,11.4,122,69.7,,
CC(=O)[C@H]1CC[C@H]2[C@@H]3CC[C@H]4C[C@](C)(OC(=O)COC(=O)CO)CC[C@]4(C)[C@H]3CC[C@]12C [Compound 247],,,,2.01,689,1.1,,
